Measured values: US9233983B2, “Substituted hetero-bicyclic compounds, compositions and medicinal applications thereof” (ADVINUS THERAPEUTICS LIMITED, priority 2012, dated 2016)
Where two headings read alike, the source gives them in different places.

Assays:
[1] = molecular target: human Bruton's Tyrosine Kinase (Btk) (Homo sapiens (Human), UniProt Q06187); test: Recombinant Human Bruton's Tyrosine Kinase (Btk) Inhibition Assay (HTRF KinEASE-TK); format: biochemical; conditions: read-out: hBTK IC50
[2] = tested on: mouse splenocytes; test: Inhibition of B Cell Activation as Measured by CD69 Expression in Mouse Splenocytes; format: cell-based; conditions: Splenocyte
Protocol: Inhibition of B Cell Activation as Measured by CD69 Expression in Mouse Splenocytes:
To test the effect of BTK inhibitors in suppressing B-cell receptor (BCR) mediated activation of B cells, we developed a flow cytometry based assay to analyze CD69 expression in B cell population among total splenocyte from the mouse. […] Finally, cell were cultured in RPMI medium with 10% FBS.
Test compounds were diluted half log starting from 2 mM in 100% DMSO (200×). 1×10^5 splenocytes were incubated with 1 uL of diluted test compounds in 200 uL culture medium in a U-bottom 96 well plate (Greiner) at 37° C. with 5% CO2 for 30 mins. Control wells received 1 uL of 100% DMSO without any compound. The cells were stimulated with 3 ug/mL goat anti-mouse IgM (Sigma, cat#M8644) and incubated for 18-20 hrs. […] Then the cells were washed 3 times with PBS with 1% FBS and analyzed by Guava Easycyte Mini flow cytometer system (Millipore). Flow cytometry data were analyzed using Weasel software (WEHI, Melbourne). First B cells were gated using CD19 markers. Then expression of CD69 was analyzed as percentage of CD69+ve cells within CD19. Percent activity for each data point was calculated using following formula: […]
Percentage activity was fit using sigmoid dose response with variable slope logistic equation in Graph-pad Prism 5 software to determine inhibition constant 50 (IC50).

[3] = 20 ng/ml rhBtk, 77 μM ATP (KM), 1 μM TK-Biotin substrate, 90 min
[4] = C57/BL6 splenocytes, 3 ug/mL goat anti-mouse IgM, 18-20 hrs, CD69+ve cells within CD19, read-out: Mouse spleenocyte IC50

Chain of human Bruton's Tyrosine Kinase (Btk) (Q06187 whole entry): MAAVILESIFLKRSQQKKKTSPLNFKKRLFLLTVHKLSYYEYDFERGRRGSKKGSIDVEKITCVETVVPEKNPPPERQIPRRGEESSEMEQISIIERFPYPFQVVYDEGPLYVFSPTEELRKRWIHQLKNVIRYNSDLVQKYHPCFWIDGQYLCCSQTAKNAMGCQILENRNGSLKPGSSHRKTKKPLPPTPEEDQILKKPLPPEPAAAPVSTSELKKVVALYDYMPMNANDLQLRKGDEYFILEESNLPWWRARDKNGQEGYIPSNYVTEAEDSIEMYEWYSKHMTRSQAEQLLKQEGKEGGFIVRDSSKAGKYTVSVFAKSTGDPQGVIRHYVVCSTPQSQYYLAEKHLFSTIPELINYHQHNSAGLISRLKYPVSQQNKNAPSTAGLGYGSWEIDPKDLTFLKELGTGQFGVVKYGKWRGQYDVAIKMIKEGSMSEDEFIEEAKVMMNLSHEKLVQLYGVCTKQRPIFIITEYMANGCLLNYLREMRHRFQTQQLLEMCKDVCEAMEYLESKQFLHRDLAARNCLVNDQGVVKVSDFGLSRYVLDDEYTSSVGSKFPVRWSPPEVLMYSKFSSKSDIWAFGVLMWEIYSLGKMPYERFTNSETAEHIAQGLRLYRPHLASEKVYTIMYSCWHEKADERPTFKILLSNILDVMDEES

| IC50 [1, 3] [nM] | IC50 [2, 4] [nM] | Structure (SMILES) | IC50 [1] [nM] | IC50 ([2]; Mus musculus, read-out: Mouse spleenocyte IC50 (nM)) [nM] |
| --- | --- | --- | --- | --- |
| 7 | 99 | Cc1c(-c2ncnc3[nH]c(-c4ccc(CN5CCNCC5)cc4)cc23)cccc1N1CCOc2cc(C3CC3)ccc2C1=O [Example A-1, 8-cyclopropyl-4-[2-methyl-3-[6-[4-(piperazin-1-ylmethyl)phenyl]-7H-pyrrolo[2,3-d]pyrimidin-4-yl]phenyl]-2,3-dihydro-1,4-benzoxazepin-5-one] |  |  |
| 3.4 | 162 | O=C1c2c(F)cc(C3CC3)cc2OCCN1c1cccc(-c2ccnc3[nH]c(C4=CCN(C5CCOCC5)CC4)cc23)c1CO [Example P-26, 8-cyclopropyl-6-fluoro-4-[2-(hydroxymethyl)-3-[2-(1-tetrahydropyran-4-yl-3,6-dihydro-2H-pyridin-4-yl)-1H-pyrrolo[2,3-b]pyridin-4-yl]phenyl]-2,3-dihydro-1,4-benzoxazepin-5-one] |  |  |
| 7 | 67 | CN1CCN(Cc2ccc(-c3cc4c(-c5cccc(N6CCOc7cc(C8CC8)ccc7C6=O)c5CO)ccnc4[nH]3)cn2)CC1 [Example B-20, 8-cyclopropyl-4-[2-(hydroxymethyl)-3-[2-[6-[(4-methylpiperazin-1-yl)methyl]-3-pyridyl]-1H-pyrrolo[2,3-b]pyridin-4-yl]phenyl]-2,3-dihydro-1,4-benzoxazepin-5-one] |  |  |
| 12 | 126 | N#CCN1CC(n2cc(-c3cc4c(-c5cccc(N6CCOc7cc(C8CC8)ccc7C6=O)c5CO)ccnc4[nH]3)cn2)C1 [Example S-2, 2-[3-[4-[4-[3-(8-cyclopropyl-5-oxo-2,3-dihydro-1,4-benzoxazepin-4-yl)-2-(hydroxymethyl)phenyl]-1H-pyrrolo[2,3-b]pyridin-2-yl]pyrazol-1-yl]azetidin-1-yl]acetonitrile] |  |  |
| 1.6 | 7.7 | O=C1c2c(F)cc(C3CC3)cc2OCCN1c1cccc(-c2ccnc3[nH]c(-c4ccc(CN5CCN(CC(F)(F)F)CC5)cn4)cc23)c1CO [Example I-16, 8-cyclopropyl-6-fluoro-4-[2-(hydroxymethyl)-3-[2-[5-[[4-(2,2,2-trifluoroethyl)piperazin-1-yl]methyl]-2-pyridyl]-1H-pyrrolo[2,3-b]pyridin-4-yl]phenyl]-2,3-dihydro-1,4-benzoxazepin-5-one] |  |  |
| 21 | > 1000 | Cc1c(-c2ncnc3[nH]c(-c4ccc(C(=O)N5CCC(O)CC5)cc4)cc23)cccc1N1CCc2cc(C3CC3)ccc2C1=O [Example K-16, 6-cyclopropyl-2-[3-[6-[4-(4-hydroxypiperidine-1-carbonyl)phenyl]-7H-pyrrolo[2,3-d]pyrimidin-4-yl]-2-methyl-phenyl]-3,4-dihydroisoquinolin-1-one] |  |  |
| 5 | 38 | CN1CCC(n2cc(-c3cc4c(-c5cccc(N6CCOc7cc(C8CC8)ccc7C6=O)c5CO)ccnc4[nH]3)cn2)CC1 [Example D-5, 8-cyclopropyl-4-[2-(hydroxymethyl)-3-[2-[1-(1-methyl-4-piperidyl)pyrazol-4-yl]-1H-pyrrolo[2,3-b]pyridin-4-yl]phenyl]-2,3-dihydro-1,4-benzoxazepin-5-one] |  |  |
| 4 | 43 | CN1CC(n2cc(-c3cc4c(-c5cccc(N6CCOc7cc(C8CC8)ccc7C6=O)c5CO)ccnc4[nH]3)cn2)C1 [Example D-7, 8-cyclopropyl-4-[2-(hydroxymethyl)-3-[2-[1-(1-methylazetidin-3-yl)pyrazol-4-yl]-1H-pyrrolo[2,3-b]pyridin-4-yl]phenyl]-2,3-dihydro-1,4-benzoxazepin-5-one] |  |  |
| 5 | 9 | CN1CCN(c2ccc(-c3cc4c(-c5cccc(-n6ccc7cc(C8CC8)ccc7c6=O)c5CO)ncnc4[nH]3)cc2)CC1 [Example C-1, 6-cyclopropyl-2-[2-(hydroxymethyl)-3-[6-[4-(4-methylpiperazin-1-yl)phenyl]-7H-pyrrolo[2,3-d]pyrimidin-4-yl]phenyl]isoquinolin-1-one] |  |  |
| 7 | 96 | N#CC1CCN(Cc2ccc(-c3cc4c(-c5cccc(N6CCOc7cc(C8CC8)ccc7C6=O)c5CO)ncnc4[nH]3)cc2)CC1 [Example B-14, 1-[[4-[4-[3-(8-cyclopropyl-5-oxo-2,3-dihydro-1,4-benzoxazepin-4-yl)-2-(hydroxymethyl)phenyl]-7H-pyrrolo[2,3-d]pyrimidin-6-yl]phenyl]methyl]piperidine-4-carbonitrile] |  |  |
| 9.7 | 189 | Cc1c(-c2ncnc3[nH]c(-c4ccc(C(=O)N5CCNCC5)cc4)cc23)cccc1N1CCOc2cc(C3CC3)ccc2C1=O [Example K-6, 8-cyclopropyl-4-[2-methyl-3-[6-[4-(piperazine-1-carbonyl)phenyl]-7H-pyrrolo[2,3-d]pyrimidin-4-yl]phenyl]-2,3-dihydro-1,4-benzoxazepin-5-one] |  |  |
| 3 | 9 | CN1CCN(Cc2ccc(-c3cc4c(-c5cccc(N6CCOc7cc(C8CC8)ccc7C6=O)c5CO)ccnc4[nH]3)cc2)CC1 [Example B-13, 8-cyclopropyl-4-[2-(hydroxymethyl)-3-[2-[4-[(4-methylpiperazin-1-yl)methyl]phenyl]-1H-pyrrolo[2,3-b]pyridin-4-yl]phenyl]-2,3-dihydro-1,4-benzoxazepin-5-one] |  |  |
|  |  | CC1(O)CCN(Cc2ccc(-c3cc4c(-c5cccc(N6CCOc7cc(C8CC8)ccc7C6=O)c5CO)ncnc4[nH]3)cc2)CC1 [Example B-6, 8-cyclopropyl-4-[2-(hydroxymethyl)-3-[6-[4-[(4-hydroxy-4-methyl-1-piperidyl)methyl]phenyl]-7H-pyrrolo[2,3-d]pyrimidin-4-yl]phenyl]-2,3-dihydro-1,4-benzoxazepin-5-one] | 7 | 81 |
| 6 | 40 | CN1CCN(Cc2ccc(-c3cc4c(-c5cccc(N6CCOc7cc(C8CC8)ccc7C6=O)c5CO)ncnc4[nH]3)cc2)CC1 [Example B-1, 8-cyclopropyl-4-[2-(hydroxymethyl)-3-[6-[4-[(4-methylpiperazin-1-yl)methyl]phenyl]-7H-pyrrolo[2,3-d]pyrimidin-4-yl]phenyl]-2,3-dihydro-1,4-benzoxazepin-5-one] |  |  |
| 2 | 8 | O=C1c2c(F)cc(C3CC3)cc2OCCN1c1cccc(-c2ccnc3[nH]c(-c4ccc(CN5CCN(C6COC6)CC5)cn4)cc23)c1CO [Example I-13, 8-cyclopropyl-6-fluoro-4-[2-(hydroxymethyl)-3-[2-[5-[[4-(oxetan-3-yl)piperazin-1-yl]methyl]-2-pyridyl]-1H-pyrrolo[2,3-b]pyridin-4-yl]phenyl]-2,3-dihydro-1,4-benzoxazepin-5-one] |  |  |
| 1 | 14.7 | CC1(O)CN(C(=O)N2CC=C(c3cc4c(-c5cccc(N6CCOc7cc(C8CC8)cc(F)c7C6=O)c5CO)ccnc4[nH]3)CC2)C1 [Example P-15, 8-cyclopropyl-6-fluoro-4-[2-(hydroxymethyl)-3-[2-[1-(3-hydroxy-3-methyl-azetidine-1-carbonyl)-3,6-dihydro-2H-pyridin-4-yl]-1H-pyrrolo[2,3-b]pyridin-4-yl]phenyl]-2,3-dihydro-1,4-benzoxazepin-5-one] |  |  |
|  | 76 | CCN1CC(n2cc(-c3cc4c(-c5cccc(N6CCOc7cc(C8CC8)ccc7C6=O)c5CO)ccnc4[nH]3)cn2)C1 [Example D-10, 8-cyclopropyl-4-[3-[2-[1-(1-ethylazetidin-3-yl)pyrazol-4-yl]-1H-pyrrolo[2,3-b]pyridin-4-yl]-2-(hydroxymethyl)phenyl]-2,3-dihydro-1,4-benzoxazepin-5-one] |  |  |
|  | 9 | O=C1c2c(F)cc(C3CC3)cc2OCCN1c1cc(F)cc(-c2ccnc3[nH]c(C4=CCN(C5COC5)CC4)cc23)c1CO [Example P-16, 8-cyclopropyl-6-fluoro-4-[5-fluoro-2-(hydroxymethyl)-3-[2-[1-(oxetan-3-yl)-3,6-dihydro-2H-pyridin-4-yl]-1H-pyrrolo[2,3-b]pyridin-4-yl]phenyl]-2,3-dihydro-1,4-benzoxazepin-5-one] |  |  |
| 10 |  | Cc1c(-c2ncnc3[nH]c(-c4ccc(CN5CCN(C)CC5)cc4)cc23)cccc1-n1ccc2cc(C3CC3)ccc2c1=O [Example B-9, 6-cyclopropyl-2-[2-methyl-3-[6-[4-[(4-methylpiperazin-l-yl)methyl]phenyl]-7H-pyrrolo[2,3-d]pyrimidin-4-yl]phenyl]isoquinolin-1-one] |  |  |
| > 1000 |  | Cc1c(-c2ncnc3[nH]c(-c4ccc(C(=O)NCC(F)(F)F)cc4)cc23)cccc1N1CCOc2cc(C3CC3)ccc2C1=O [Example K-7, 4-[4-[3-(8-cyclopropyl-5-oxo-2,3-dihydro-1,4-benzoxazepin-4-yl)-2-methyl-phenyl]-7H-pyrrolo[2,3-d]pyrimidin-6-yl]-N-(2,2,2-trifluoroethyl)benzamide] |  |  |
| 114 |  | Cc1c(-c2ncnc3[nH]c(-c4ccc(C(=O)N5CCCC5C(=O)O)cc4)cc23)cccc1N1CCOc2cc(C3CC3)ccc2C1=O (stereo not shown) [Example K-12, 1-[4-[4-[3-(8-cyclopropyl-5-oxo-2,3-dihydro-1,4-benzoxazepin-4-yl)-2-methyl-phenyl]-7H-pyrrolo[2,3-d]pyrimidin-6-yl]benzoyl]pyrrolidine-2-carboxylic acid] |  |  |
